Assay results published in US4244947A, “Carba decapeptide derivatives of [TYR^6 ]-somatostatin” (Ayerst McKenna and Harrison Inc., priority 1979, dated 1981).

Assays:
Assay type in all cases: in vivo, rat
[1] = test system: arginine stimulated insulin secretion; test: arginine stimulated insulin secretion in anaesthetized fasted rats (plasma IRI); conditions: for ΔIRI, mean incremental change of IRI from basal: infused with arginine, 30 min, mean ± SEM
Method: (§1) The in vivo activity of the peptide of formula I is established by subjecting the peptide of formula I, in which X is (CH2)2 as a representative peptide of this invention, to the following standard test procedures.
(§2) Male Sprague Dawley rats (200±10 gm) body weight are used throughout these studies. They are maintained on an ad libitum diet of Purina Lab Chow and tap water until 24 hr before the studies are carried out. In the 24 hr period prior to use, the animals are fasted, but have unlimited access to tap water. All studies are conducted on sodium pentobarbital, sold under the trademark Nembutal, (Abbott Labs, Montreal), 60 mg/kg, ip, anaesthetized rats.
(§3) In studies where both insulin and glucagon secretion are investigated, arginine (arginine-HCl in 0.9% aqueous sodium chloride, pH 7.4, 200 mg/100 gm rat, Nutritional Biochemicals, Cleveland) is infused into an exposed jugular vein (2.0 ml/30 min).
(§4) The peptide of formula I or somatostatin at various concentrations is infused simultaneously with the arginine or glucose stimulus, with the aid of a butterfly infusion set (23 guage) into the test animals. The effect of the vehicle on the release of the hormones is determined by infusing the saline diluent into selected rats.
(§5) The blood samples are discharged into chilled (4° C.) glass test tubes, containing aprotinin, sold under the trademark Trasylol, (Boehringer Ingelheim, Montreal), 500 KIU/ml whole blood, and plasma samples were collected after centrifugation (4° C., 3000 rpm for 30 min). The plasma samples were stored at -20° until assayed for immuno reactive glucagon (IRG) using antiserum 30 K and for immuno reactive insulin (IRI) by the methods described by W. Lippmann and M. Kobric, Horm. Metab. Res., 10, 280 (1978).
(§6) All results are expressed as the mean ±SEM of the response. Insulin and glucagon responses obtained in the arginine treated groups are derived by subtracting the basal hormone level from the level at 30 min, and are expressed in Tables I, II and III as ΔIRG (pg/ml) and ΔIRI/(μU/ml), for glucagon and insulin, respectively. Insulin results obtained from the glucose treated animals are in absolute hormone level at the termination of the infusion.
(§7) Wilcoxon's two sample test for unpaired observations, as described in "Statistical Methods", G. W. Snedecor and W. G. Cochran, ed., sixth edition, the Iowa State University Press, Ames, Iowa, 1973, pp 130 and 131, is used to determine the significance of the peptide+arginine or peptide+glucose versus the responses due to arginine or glucose alone. In selected instances, parallel dose-response line assay by analysis of variance, as described in "Statistical Method in Biological Assay", D. J. Finney, ed., second edition, Hafner Publishing Company, New York, 1964, is used to determine the relative potency of the 2 peptides in the bioassays. A p≤0.05 is deemed to be significant.

[2] = test system: arginine stimulated glucagon secretion; test: arginine stimulated glucagon secretion in anaesthetized fasted rats (plasma IRG); conditions: for ΔIRG, mean incremental change of plasma IRG from level at 0 min to level at 30 min: mean ± SEM
Method: as §1, §2, §3, §4, §5, §6, §7

[3] = test system: glucose stimulated insulin secretion; test: glucose stimulated insulin secretion in anaesthetized fasted rats (plasma IRI); conditions: for IRI/ml, level observed at 30 min: absolute level, mean ± SEM
Method: as §1, §2
In studies where only insulin secretion is stimulated, glucose in 0.9% aqueous sodium chloride (British Drug House, Poole, England) is infused into an exposed jugular vein (100 mg/100 gm, in a volume of 2.0 ml for 30 min).
as §4, §5, §6, §7

Compound: C[C@H](N)C(=O)NCC(=O)N[C@H]1CSSC[C@@H](C(=O)O)NC(=O)[C@H](CO)NC(=O)[C@H]([C@@H](C)O)NC(=O)[C@H](Cc2ccccc2)NC(=O)[C@H]([C@@H](C)O)NC(=O)[C@H](CCCCN)NC(=O)[C@H](Cc2c[nH]c3ccccc23)NC(=O)[C@H](Cc2ccccc2)NC(=O)[C@H](Cc2ccccc2)NC(=O)[C@H](CC(N)=O)NC(=O)[C@H](CCCCN)NC1=O [somatostatin]
- ΔIRI, mean incremental change of IRI from basal ([1]; Study A, 0.3 μg peptide/100 gm body weight rat): 73.8 ± 18.5 μU/ml
- ΔIRI, mean incremental change of IRI from basal ([1]; Study A, 1.0 μg peptide/100 gm body weight rat): 43.0 ± 22.6 μU/ml
- ΔIRI, mean incremental change of IRI from basal ([1]; Study A, 3.0 μg peptide/100 gm body weight rat): 40.0 ± 6.6 μU/ml
- ΔIRI, mean incremental change of IRI from basal ([1]; Study A, 30.0 μg peptide/100 gm body weight rat): 23.2 ± 12.5 μU/ml
- ΔIRI, mean incremental change of IRI from basal ([1]; Study B, 0.03 μg peptide/100 gm body weight rat): 88.3 ± 9.1 μU/ml
- ΔIRI, mean incremental change of IRI from basal ([1]; Study B, 0.3 μg peptide/100 gm body weight rat): 76.8 ± 5.2 μU/ml
- ΔIRI, mean incremental change of IRI from basal ([1]; Study B, 3.0 μg peptide/100 gm body weight rat): 32.2 ± 3.5 μU/ml
- ΔIRI, mean incremental change of IRI from basal ([1]; Study B, 30.0 μg peptide/100 gm body weight rat): 35.5 ± 7.8 μU/ml
- ΔIRI, mean incremental change of IRI from basal ([1]; Study C, 10.0 μg peptide/100 gm body weight rat): 52.8 ± 9.3 μU/ml
- ΔIRI, mean incremental change of IRI from basal ([1]; Study C, 100.0 μg peptide/100 gm body weight rat): 25.5 ± 8.1 μU/ml
- suppression of IRI, comparison of effective dose ([1]; arginine stimulated, summary of Table I): suppresses IRI at a lower dose than does the peptide of formula I in which X is (CH2)2
- ΔIRG, mean incremental change of plasma IRG from level at 0 min to level at 30 min ([2]; Study A, 0.3 μg peptide/100 gm rat infused for 30 min with arginine): 157.2 ± 35.9 pg/mL
- ΔIRG, mean incremental change of plasma IRG from level at 0 min to level at 30 min ([2]; Study A, 1.0 μg peptide/100 gm rat infused for 30 min with arginine): 72.7 ± 19.0 pg/mL
- ΔIRG, mean incremental change of plasma IRG from level at 0 min to level at 30 min ([2]; Study A, 3.0 μg peptide/100 gm rat infused for 30 min with arginine): 102.5 ± 25.8 pg/mL
- ΔIRG, mean incremental change of plasma IRG from level at 0 min to level at 30 min ([2]; Study A, 30.0 μg peptide/100 gm rat infused for 30 min with arginine): 90.2 ± 38.4 pg/mL
- ΔIRG, mean incremental change of plasma IRG from level at 0 min to level at 30 min ([2]; Study B, 0.03 μg peptide/100 gm rat infused for 30 min with arginine): 211.0 ± 23.1 pg/mL
- ΔIRG, mean incremental change of plasma IRG from level at 0 min to level at 30 min ([2]; Study B, 0.3 μg peptide/100 gm rat infused for 30 min with arginine): 149.2 ± 29.9 pg/mL
- ΔIRG, mean incremental change of plasma IRG from level at 0 min to level at 30 min ([2]; Study B, 3.0 μg peptide/100 gm rat infused for 30 min with arginine): 69.3 ± 22.2 pg/mL
- ΔIRG, mean incremental change of plasma IRG from level at 0 min to level at 30 min ([2]; Study B, 30.0 μg peptide/100 gm rat infused for 30 min with arginine): 69.7 ± 8.4 pg/mL
- suppression of IRG secretion, comparison ([2]; arginine stimulated, summary of Table II): suppresses the IRG secretion about equally
- IRI/ml, level observed at 30 min ([3]; Study A, 10 μg peptide/100 gm rat infused for 30 min with glucose): 27.2 ± 4.7 μU/ml
- IRI/ml, level observed at 30 min ([3]; Study A, 100 μg peptide/100 gm rat infused for 30 min with glucose): 12.3 ± 3.9 μU/ml
- IRI/ml, level observed at 30 min ([3]; Study B, 10 μg peptide/100 gm rat infused for 30 min with glucose): 40.3 ± 7.7 μU/ml
- IRI/ml, level observed at 30 min ([3]; Study B, 30 μg peptide/100 gm rat infused for 30 min with glucose): 17.0 ± 7.5 μU/ml
- IRI/ml, level observed at 30 min ([3]; Study B, 100 μg peptide/100 gm rat infused for 30 min with glucose): 6.2 ± 1.9 μU/ml
- relative potency in suppressing IRI secretion ([3]; glucose stimulated, summary of Table III): significantly more potent than the peptide of formula I in which X is (CH2)2
